Legend:
5637 cells = assay: ROS estimation with H2DCFDA; assay type: cell-based, human; details: 5637, 24 h, especially at concentrations above 20 µM
Protocol: (§1) Since 5c was not toxic to non-tumorigenic cells, such as MCF12A and UROtsa, these cells were excluded from experiments aimed at identifying the broad mechanism of cytotoxicity. A common mechanism by which these antioxidants induce cytotoxicity in tumor cells is by generating Reactive Oxygen Species (ROS) selectively in fast-growing tumor cells. The levels of ROS generated by 5c exposed cells were evaluated with the oxidation of 2′,7′-dichlorodihydrofluorescein diacetate (H2DCFDA). It is a cell-permeant fluorescent probe used for detecting ROS production (Thermo Scientific Inc., Waltham, MA, USA). […] Figure 3 illustrates the quantification of intracellular ROS levels in four bladder cancer cell lines, 5637, T24, HT-1376, and MB49, following treatment with UA and its biotin-conjugated derivative, compound 5c.
(§2) The relative levels of intracellular ROS produced in untreated and drug-treated cells were analyzed by fluorimetry using the fluorescent probe H2DCFDA (Sigma-Aldrich, #D6883, St. Louis, MI, USA), as described previously. Briefly, cells cultured in a 96-well plate at 1 × 10^4 cells per well were treated with drugs of interest for 24 h rinsed with sterile PBS to remove excess drugs, and incubated with 10 μM DCFDA for 30 min at 37 °C and 5% CO2. Following three rinses with PBS, the fluorescence intensity was recorded at excitation: 485/20, emission: 528/20 using a BioTek Synergy HTX Multimode fluorescence plate reader (Agilent Technologies, Inc., Santa Clara, CA, USA), and the data were represented as percentage change compared to the respective untreated control.
(§3) Figure 3 Estimation of oxidative stress: Treatment with UA or 5c increased ROS levels in various bladder cancer cells. ROS levels were estimated at 24 h using DCFDA. The relative fluorescence unit (RFU) was normalized to that observed in untreated cells and expressed as a percent increase. Data are Means ± SD, (n = 4). Relative significance, expressed as p-value are calculated based on one-way ANOVA.

HT1376 cells = assay: ROS estimation with H2DCFDA; assay type: cell-based, human; details: HT1376, 24 h, especially at concentrations above 20 µM
Protocol: as §1, §2, §3

[1] = test system: Coiled-coil domain-containing protein; assay: Streptavidin pulldown proteomics (LC-MS/MS), 5637 cells; assay type: binding, human; details: 5637, 50 µM
Protocol: (§4) We used proteomics to identify potential molecular targets of 5c. A pulldown assay with streptavidin-agarose-coated magnetic beads was performed. Briefly, 5637 and MB49 cells were incubated with 50 µM 5c for 10 min and 1 h. After incubation, the cells were rinsed three times with cold phosphate-buffered saline (PBS), and cell lysates were prepared and clarified by centrifugation to remove cellular debris, including nuclei. The clarified lysates were incubated with streptavidin-coated magnetic beads to selectively bind biotinylated contents. Bound proteins were separated from unbound proteins through thorough bead washing. Proteins attached to the beads were eluted and analyzed on an Orbitrap Fusion Tribrid mass spectrometer (Thermo Scientific, New York, NY, USA) coupled with an Ultimate 3000 nano-UPLC system. Samples were trapped on a PepMap100 C18 trap column (5 µm, 0.3 × 5 mm) and separated on a PepMap RSLC C18 column (2 µm, 75 µm × 150 mm) using a gradient from 2 to 40% acetonitrile with 0.1% formic acid over 120 min at […] and 40 °C. MS data were acquired in positive mode using data-dependent acquisition (DDA), with precursor scans at 120,000 FWHM (400–2000 m/z), and MS/MS scans in top-speed mode (3 s cycle) using HCD fragmentation (NCE 32%). Proteins were identified and quantified based on peptide spectral matches (PSMs), and fold enrichment compared to controls was calculated to evaluate interaction strength.
(§5) The 5637 and MB49 cells were cultured and treated with higher concentrations of 5c (50 µM) for short period of times (10 min & 60 min) followed by whole cell lysis (WCL) preparation of both treated and untreated cells using modified RIPA buffer [NaCl (100mM), TrisCl (20mM, pH 7.4), EDTA (10 mM), TritonX-100 (0.5%), Glycerol (5%), Protease inhibitor cocktail (1x)] with gentle continuous rotation. The protein content of each WCL was estimated using Pierce™ BCA Protein Assay kit (Thermo-Scientific # 23225). The 100 µL of resuspended Dynabeads™ MyOne™ Streptavidin C1 (Invitrogen # 65001) were washed with PBST (PBS with 0.01% Tween™20) in a magnet stand as recommended in the manufacturer’s instructions. The washed beads were incubated with 200 µg of each WCL in separate tubes at room temperature for 2 h in a gentle end-over-end mixing. After incubation, beads were washed 3–5 times with PBST (0.01% Tween-20) on a magnetic stand and beads were decanted by after spinning and magnetization. The samples were stored at −80 °C till further analysis using LC-MS/MS by the Proteomics and Mass Spectrometry Core Laboratory of Augusta University.

DNA topoisomerase = assay: as above; assay type: binding, human; details: 5637, 50 µM
Protocol: as §4, §5

[2] = test system: Eukaryotic initiation factor 4A (eIF4A); assay: as above; assay type: binding, human; details: 5637, 50 µM
Protocol: as §4, §5

[3] = test system: Eukaryotic translation initiation factor 2 (eIF2); assay: as above; assay type: binding, human; details: 5637, 50 µM
Protocol: as §4, §5

[4] = molecular target: ATP synthase subunit alpha (Homo sapiens, UniProt P25705); assay: as above; assay type: binding; details: 5637, 50 µM
Protocol: as §4, §5

[5] = molecular target: Elongation factor 1-delta (EF1δ) (Homo sapiens, UniProt P29692); assay: as above; assay type: binding; details: 5637, 50 µM
Protocol: as §4, §5

[6] = molecular target: Elongation factor 1-gamma (EF1γ) (Homo sapiens, UniProt P26641); assay: as above; assay type: binding; details: 5637, 50 µM
Protocol: as §4, §5

[7] = molecular target: Ras GTPase-activating-like protein IQGAP1 (Homo sapiens, UniProt P46940); assay: as above; assay type: binding; details: 5637, 50 µM
Protocol: as §4, §5

[8] = molecular target: Receptor of activated protein C kinase 1 (RACK1) (Homo sapiens, UniProt P63244); assay: as above; assay type: binding; details: 5637, 50 µM
Protocol: as §4, §5

[9] = test system: ATP-binding cassette sub-family A; assay: Streptavidin pulldown proteomics (LC-MS/MS), MB49 cells; set-up: species or system murine; details: MB-49, 50 µM
Protocol: as §4, §5

[10] = molecular target: Poly(U)-binding-splicing factor 60 (PUF60) (Mus musculus, UniProt Q3UEB3); assay: as above; set-up: species or system murine; details: MB-49, 50 µM
Protocol: as §4, §5

[11] = test system: RNA-binding protein 39 (RBM39); assay: as above; set-up: species or system murine; details: MB-49, 50 µM
Protocol: as §4, §5

Chain of Ras GTPase-activating-like protein IQGAP1 (P46940 whole entry): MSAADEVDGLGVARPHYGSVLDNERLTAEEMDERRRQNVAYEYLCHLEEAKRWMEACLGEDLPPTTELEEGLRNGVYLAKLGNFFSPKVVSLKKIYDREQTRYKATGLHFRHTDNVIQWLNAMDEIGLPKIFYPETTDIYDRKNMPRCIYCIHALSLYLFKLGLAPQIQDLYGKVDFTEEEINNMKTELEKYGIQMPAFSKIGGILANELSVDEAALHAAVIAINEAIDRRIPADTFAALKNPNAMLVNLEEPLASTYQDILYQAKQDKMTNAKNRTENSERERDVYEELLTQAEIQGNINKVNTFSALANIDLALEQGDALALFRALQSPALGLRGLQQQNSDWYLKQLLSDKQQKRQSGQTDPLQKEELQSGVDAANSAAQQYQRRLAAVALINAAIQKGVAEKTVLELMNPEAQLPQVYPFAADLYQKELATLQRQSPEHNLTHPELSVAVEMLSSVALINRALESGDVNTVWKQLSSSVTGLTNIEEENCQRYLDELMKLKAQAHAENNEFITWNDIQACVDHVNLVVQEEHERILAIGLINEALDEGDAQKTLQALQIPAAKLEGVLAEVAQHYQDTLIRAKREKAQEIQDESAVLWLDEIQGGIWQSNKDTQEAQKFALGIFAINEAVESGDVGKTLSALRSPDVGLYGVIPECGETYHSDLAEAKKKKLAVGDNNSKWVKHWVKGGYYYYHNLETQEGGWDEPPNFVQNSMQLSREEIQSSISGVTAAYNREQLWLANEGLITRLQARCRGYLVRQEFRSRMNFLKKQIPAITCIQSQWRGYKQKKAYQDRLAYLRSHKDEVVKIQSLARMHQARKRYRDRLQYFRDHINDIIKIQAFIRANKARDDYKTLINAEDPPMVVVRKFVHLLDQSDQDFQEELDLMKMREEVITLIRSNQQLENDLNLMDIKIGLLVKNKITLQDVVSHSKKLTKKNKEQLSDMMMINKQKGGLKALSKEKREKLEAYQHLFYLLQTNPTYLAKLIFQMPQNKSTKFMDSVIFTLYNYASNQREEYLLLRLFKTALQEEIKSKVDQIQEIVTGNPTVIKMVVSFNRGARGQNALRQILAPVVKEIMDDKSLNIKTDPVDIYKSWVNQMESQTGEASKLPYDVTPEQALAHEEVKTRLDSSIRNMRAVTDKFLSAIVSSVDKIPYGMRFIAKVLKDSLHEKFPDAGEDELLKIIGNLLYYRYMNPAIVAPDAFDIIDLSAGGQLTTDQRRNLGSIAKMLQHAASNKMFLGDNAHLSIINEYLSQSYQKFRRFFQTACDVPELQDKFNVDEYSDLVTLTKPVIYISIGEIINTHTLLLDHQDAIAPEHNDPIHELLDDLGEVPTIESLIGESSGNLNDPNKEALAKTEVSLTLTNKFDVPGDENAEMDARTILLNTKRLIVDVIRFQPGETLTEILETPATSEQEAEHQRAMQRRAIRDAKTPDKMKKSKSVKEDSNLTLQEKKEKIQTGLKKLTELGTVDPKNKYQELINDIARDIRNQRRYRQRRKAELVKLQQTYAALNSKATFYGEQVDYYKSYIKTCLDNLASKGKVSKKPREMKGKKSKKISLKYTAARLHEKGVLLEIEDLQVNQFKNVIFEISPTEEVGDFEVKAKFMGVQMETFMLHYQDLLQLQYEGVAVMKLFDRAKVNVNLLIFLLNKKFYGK
Chain of Poly(U)-binding-splicing factor 60 (PUF60) (Q3UEB3 whole entry): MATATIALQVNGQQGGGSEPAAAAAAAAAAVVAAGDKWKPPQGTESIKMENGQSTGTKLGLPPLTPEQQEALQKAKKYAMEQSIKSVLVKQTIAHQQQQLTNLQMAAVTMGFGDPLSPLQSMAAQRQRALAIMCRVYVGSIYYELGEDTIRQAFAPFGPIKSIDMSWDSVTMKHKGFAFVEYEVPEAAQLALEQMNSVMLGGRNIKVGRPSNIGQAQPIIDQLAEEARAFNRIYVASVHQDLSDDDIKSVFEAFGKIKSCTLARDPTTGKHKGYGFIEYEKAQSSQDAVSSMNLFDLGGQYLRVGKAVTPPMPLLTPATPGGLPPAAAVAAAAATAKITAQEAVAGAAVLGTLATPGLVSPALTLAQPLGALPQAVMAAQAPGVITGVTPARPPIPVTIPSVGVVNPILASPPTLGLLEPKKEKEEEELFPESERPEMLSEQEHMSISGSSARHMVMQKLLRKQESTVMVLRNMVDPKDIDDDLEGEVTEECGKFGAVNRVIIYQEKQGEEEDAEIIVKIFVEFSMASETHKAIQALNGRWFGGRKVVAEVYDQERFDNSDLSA
Chain of Elongation factor 1-delta (EF1δ) (P29692 whole entry): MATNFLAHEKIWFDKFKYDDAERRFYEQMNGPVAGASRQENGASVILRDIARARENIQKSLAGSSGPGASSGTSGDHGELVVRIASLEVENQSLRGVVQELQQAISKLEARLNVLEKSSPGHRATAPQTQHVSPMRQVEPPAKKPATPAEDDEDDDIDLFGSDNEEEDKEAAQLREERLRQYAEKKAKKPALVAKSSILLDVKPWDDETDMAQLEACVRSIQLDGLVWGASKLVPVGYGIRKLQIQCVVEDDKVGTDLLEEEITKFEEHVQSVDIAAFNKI
Chain of Elongation factor 1-gamma (EF1γ) (P26641 whole entry): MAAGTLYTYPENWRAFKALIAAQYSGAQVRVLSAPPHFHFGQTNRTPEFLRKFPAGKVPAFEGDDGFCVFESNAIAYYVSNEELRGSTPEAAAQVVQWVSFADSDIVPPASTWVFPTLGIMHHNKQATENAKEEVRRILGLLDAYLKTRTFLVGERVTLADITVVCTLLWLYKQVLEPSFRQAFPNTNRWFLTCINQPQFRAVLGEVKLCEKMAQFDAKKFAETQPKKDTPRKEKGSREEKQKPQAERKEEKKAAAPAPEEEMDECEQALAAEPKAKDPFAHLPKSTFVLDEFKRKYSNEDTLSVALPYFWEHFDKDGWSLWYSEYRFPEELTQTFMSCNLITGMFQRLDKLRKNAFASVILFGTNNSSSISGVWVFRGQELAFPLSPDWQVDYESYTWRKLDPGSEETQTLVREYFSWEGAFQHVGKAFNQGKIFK

Fold Change 10 min/Ctrl [4]: 1.63 | Fold Change 1 h/Ctrl [4]: 2 | Fold Change 10 min/Ctrl [5]: 8 | Fold Change 1 h/Ctrl [5]: 7 | Fold Change 1 h/Ctrl [6]: 6 | Fold Change 10 min/Ctrl [7]: 3.5 | Fold Change 1 h/Ctrl [7]: 2.25 | Fold Change 10 min/Ctrl [8]: 6 | Fold Change 1 h/Ctrl [8]: 6 | Fold Change 10 min/Ctrl [10]: 2.33 | Fold Change 1 h/Ctrl [10]: 3.33
SMILES: CC1CCC2(C(=O)OCCCCOC(=O)CCCCC3SCC4NC(=O)NC43)CCC3(C)C(=CCC4C5(C)CCC(O)C(C)(C)C5CCC43C)C2C1C [Compound 5c, 4-((5-((3aS,4S,6aR)-2-Oxohexahydro-1H-thieno [3,4-d]imidazol-4-yl)pentanoyl)oxy) butyl 3-hydroxy-urs-12-en-28-oate]
ROS levels (5637 cells): higher levels of ROS than UA | ROS levels (HT1376 cells): higher levels of ROS than UA | Fold Change 10 min/Ctrl [1]: 0 | Fold Change 1 h/Ctrl [1]: 2 | Fold Change 10 min/Ctrl (DNA topoisomerase): 0.08 | Fold Change 1 h/Ctrl (DNA topoisomerase): 0.11 | Fold Change 10 min/Ctrl [2]: 22 | Fold Change 1 h/Ctrl [2]: 19 | Fold Change 10 min/Ctrl [3]: 14 | Fold Change 1 h/Ctrl [3]: 7 | Fold Change 10 min/Ctrl [9]: 1 | Fold Change 1 h/Ctrl [9]: 2 | Fold Change 10 min/Ctrl [11]: 2 | Fold Change 1 h/Ctrl [11]: 1.71
